Data taken from PMC4074120, “Discovery of Novel GPVI Receptor Antagonists by Structure-Based Repurposing” (PLoS ONE, 2014).

Biological target: T1, GPVI (platelet glycoprotein VI) (Homo sapiens, UniProt Q9HCN6)
T1 construct: gene GP6; native receptor on washed human platelets
T1 sequence (Q9HCN6 21-339): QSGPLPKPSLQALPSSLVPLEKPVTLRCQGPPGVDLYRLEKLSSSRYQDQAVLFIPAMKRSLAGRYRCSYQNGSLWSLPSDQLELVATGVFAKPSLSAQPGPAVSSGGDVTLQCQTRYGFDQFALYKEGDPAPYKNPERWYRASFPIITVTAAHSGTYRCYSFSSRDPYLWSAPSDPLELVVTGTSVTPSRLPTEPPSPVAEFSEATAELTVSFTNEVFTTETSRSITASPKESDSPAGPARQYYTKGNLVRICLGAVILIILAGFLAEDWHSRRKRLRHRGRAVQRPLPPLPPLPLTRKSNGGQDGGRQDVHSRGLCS
Assay: Inhibition of CRP-XL/collagen-induced Ca2+ release and aggregation in washed human platelets; rightward shift of CRP-XL curve
Format: cell-based
Conditions: read-out: Ca^2+ RELEASE / CRP

IC50: 40 µM
Structure (SMILES): CN(C)CCCSc1ccccc1NC(=O)/C=C/c1ccccc1 [cinanserin]
